Key:
[1] = Effects of pharmacological treatments on growth parameters in dexamethasone-treated young rats; assay type: in vivo, Sprague-Dawley rats; details: for Final Body Weight: prepubertal male rats, dexamethasone 40 μg/kg ip daily from day 23, A 80 nmoles/kg sc three times daily from day 30; for Final Body Weight / Final Nose-Anal Length / Lee Obesity Index / Growth Rate / Epididymal Fat Pads: mean ± SEM of eight animals; for Final Nose-Anal Length / Lee Obesity Index / Growth Rate / Epididymal Fat Pads: same regimen; for Growth Rate: slope of growth curve; for Epididymal Fat Pads: weight at sacrifice
Experimental: (§1) Thirty-two prepubertal male Sprague-Dawley rats approximately 21 days old and weighing between 45 and 55 grams, were obtained from Harlan, Italy (S. Pietro al Natisone, ITALY). During the study, the animals were maintained in accordance with the guidelines of the Italian Ministry of Health for the care and use of laboratory animals (Decreto legge 116/92). The animals were randomly divided into two treatment groups and kept in a controlled environment at a constant temperature of 21-23° C. with 12:12 light/dark exposure continuous period wherein the light exposure began at approximately 8:00 am and ended at approximately 8:00 pm. The animals were provided with water and food ad libitum consisting of an approximate 3200 calories/kg daily diet of standard pellet chow provided by Piccioni, Gessate-Milano, Italy (containing at least 19% protein, 3% fat and 56% carbohydrate).
(§2) Beginning on the 23rd day (i.e., the animals were 23 days old), 16 of the study animals were treated intraperitoneally (Ip) daily with 40 μg/kg of either saline or dexamethasone sodium phosphate (sold under the trademark Decadron® by Merck Pharmaceuticals, West Point, Pa.). Beginning on the 30th day (i.e., the animals were 30 days old), the subgroup of 16 studied animals was further divided into groups of 8 and treated subcutaneously three times daily (at approximately 9:00 am, 1:00 pm and 5:00 pm) with either 80 nmoles/kg of the preferred ghrelin analog [Aib^2, Glu^3(NH-hexyl)]hGhrelin(1-28)-NH2 (IPSEN, Milford, Mass.) dissolved in a sterile saline solution with 0.25% bovine serum albumin or vehicle (the saline-bovine serum albumin solution alone). This regimen continued for 24 days during which time the studied animals were weighed two times per week. At irregular intervals, the cumulative food intake for a 24-hour period of time was measured. Beginning on the 46th day (i.e., the animals were 46 days old), the length of the test and control animals from nose to anus was measured (hereinafter referred to as “the nose-anal length”). On the 47th day (i.e., the animals were 47 days old), all food was denied to the test subjects commencing at 8:00 am. Small samples of blood were taken via percutaneous puncture of the tail to assess blood glucose levels during the treatment period.
(§3) The test animals received two intravenous administrations of [Aib^2, Glu^3(NH-hexyl)]hGhrelin(1-28)-NH2 at approximately 9:00 am and 1:00 pm. The studied animals were sacrificed by rapid decapitation at approximately 2:00 pm, trunk blood collected for hormone level determinations, and the epididymal fat pads removed and weighed.
(§4) Unless otherwise stated, the results reported in FIGS. 3-6 are expressed as the mean±SEM of eight replicate test subjects. Data was analyzed for statistical significance by one-way ANOVA which determines the variation (variance) within the groups and how that variation translates into variation (i.e. differences) between the groups, taking into account how many subjects there are in each group. […] The linear correlation analysis was performed either by Pearson's parametric test or by Spearman's nonparametric test. A P value below 0.05 was considered significant.

[2] = Effects of pharmacological treatments on plasma hormones and glucose concentrations; assay type: in vivo, Sprague-Dawley rats; details: day 47, mean ± SEM of eight animals; for Glucose: at sacrifice; for Corticosterone / IGF-1 / Insulin: plasma at sacrifice
Experimental: as §1, §2, §3
Samples of trunk blood were taken from the test subjects via […]. The blood samples were collected in tubes containing EDTA, separated by centrifugation, and stored at −20° C. Plasma insulin, IGF-1, and corticosterone levels were all measured using commercial RIA kits (Insulin and Corticosterone kits were both obtained from ICN-Biomedicals, Asse-Relegem, BELGIUM and the rIGF-1 test kit was obtained from Mediagnostic GMbH, Tubingen, GERMANY). Glucose concentration was determined using the Glucotrend® Soft Test System blood glucose meter (Roche Diagnostics, Barcelona, SPAIN).
as §4

[3] = rat; cited from earlier work
[4] = 24-h food intake and food efficiency in treated young rats; assay type: in vivo, Sprague-Dawley rats
Text: FIG. 4. Panel A: the effect of the different pharmacological treatment on 24-h food intake expressed as a percent of the control value. Data represented the mean±SEM of nine determinations performed at irregular intervals from day 33 to day 47 after birth. Panel B: the effect of the different pharmacological treatments on food efficacy calculated as a ratio between food intake (g) and […] measured over the same time interval at different stages of growth. Data represents the meant SEM of eight rats. *P<0.05; **<0.01 vs SAL-treated rats (Dunnett's test). Panel C: the effect of the different pharmacological treatments on the cumulative food intake measured over the indicated time intervals at different stages of growth.
Beginning on the 23rd day (i.e., the animals were 23 days old), 16 of the study animals were treated intraperitoneally (Ip) daily with 40 μg/kg of either saline or dexamethasone sodium phosphate (sold under the trademark Decadron® by Merck Pharmaceuticals, West Point, Pa.). Beginning on the 30th day (i.e., the animals were 30 days old), the subgroup of 16 studied animals was further divided into groups of 8 and treated subcutaneously three times daily (at approximately 9:00 am, 1:00 pm and 5:00 pm) with either 80 nmoles/kg of the preferred ghrelin analog [Aib^2, Glu^3(NH-hexyl)]hGhrelin(1-28)-NH2 (IPSEN, Milford, Mass.) dissolved in a sterile saline solution with 0.25% bovine serum albumin or vehicle (the saline-bovine serum albumin solution alone). This regimen continued for 24 days during which time the studied animals were weighed two times per week. At irregular intervals, the cumulative food intake for a 24-hour period of time was measured. Beginning on the 46th day (i.e., the animals were 46 days old), the length of the test and control animals from nose to anus was measured (hereinafter referred to as “the nose-anal length”). […]
Food efficiency was calculated as the ratio between body weight gain (in grams) and food intake (in grams) measured over the same time interval.

Compound	Final Body Weight [1]	Final Nose-Anal Length [1]	Lee Obesity Index [1]	Growth Rate [1]	Epididymal Fat Pads [1]	Glucose [2]	Corticosterone [2]	IGF-1 [2]	Insulin [2]	glucocorticoid-mediated GH-inhibition [3]	growth suppression induced by DEX ([1]; concomitant treatment with DEX, FIG. 3)	somatic growth as compared to SAL-treated rats ([1]; young male rats, FIG. 3, Dunnett's t test)	food efficiency (ratio body weight gain / food intake) vs saline treatment ([4]; FIG. 4B, two out of three determinations)	cumulative 24-hour food intake vs saline-treated animals ([4]; after 10 days from beginning of dexamethasone treatment, FIG. 4A)	decrease of food efficiency induced by dexamethasone ([4]; co-administration with dexamethasone, FIG. 4B)
C[C@@H]1C[C@H]2[C@@H]3CCC4=CC(=O)C=C[C@]4(C)[C@@]3(F)[C@@H](O)C[C@]2(C)[C@@]1(O)C(=O)CO [Dexamethasone, 9-fluoro-11β,17,21-trihydroxy-16a-methylpregna-1,4-diene-3,20-dione, reference compound]	185.2 ± 4.2 g	17.8 ± 0.2 cm	321 ± 1.6	5.6 ± 0.2 g/day	1.14 ± 0.06 g	107 ± 6 mg/dL	19 ± 2 ng/mL	1257 ± 112 ng/mL	50 ± 6 μIU/ml	–	–	–	–	–	–
GHRP-6	–	–	–	–	–	–	–	–	–	able to completely counteract	–	–	–	–	–
[Aib^2, Glu^3(NH-hexyl)]hGhrelin(1-28)-NH2	230.8 ± 4.8 g	19.3 ± 0.1 cm	318 ± 1.4	7.6 ± 0.3 g/day	1.31 ± 0.07 g	122 ± 3 mg/dL	235 ± 23 ng/mL	1653 ± 87 ng/mL	40.4 ± 5.7 μIU/ml	–	reversed	significantly increased	increased	increased	able to reverse

Reference: patent publication US20100227806A1, “Use Of A Ghrelin Agonist To Improve Catabolic Effects Of Glucocorticoid Treatment” (priority 2006, published 2010)
